Counter-ions that a name gives are not always drawn. Like-named read-outs stand apart in the source and are kept apart here.
Assays:
[1] = tested on: behaviors of compound-treated mice; assay: Neuropharmacological Assay (SmartCube); assay type: in vivo; conditions: for minimal effective dose: Mus musculus, ip, 0.25 h, dose having 50% or more total activity in SmartCube, read-out: MED (minimal effective dose)
Outline: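 Behavioral signatures were captured automatically by video, and each drug class received a probability for the best of three i.p. doses given 15 min pre-test (vehicle: Pharmasolve/PEG/propylene glycol). Potency is given as MED, the lowest mpk dose (typically 0.3–30) reaching 50% or more total activity.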

MES-induced seizures = assay: Mouse Maximum Electroshock Assay (MES); assay type: in vivo; conditions: male CF-1 mice, fewer than 4 animals tested, given as N/F
Text: Mouse Maximum Electroshock Assay (MES)
Mouse Maximum Electroshock Assay (MES) is a model for generalized tonic-clonic seizures and provides an indication of a compound's ability to prevent seizure spread when all neuronal circuits in the brain are maximally active. These seizures are highly reproducible and are electrophysiologically consistent with human seizures. For all MES tests, 60 Hz of alternating current (50 mA in mice and 150 mA in rats) was delivered for 0.2 sec by corneal electrodes which had been primed with an electrolyte solution containing an anesthetic agent (0.5% tetracaine HCl). An animal was considered “protected” from MES-induced seizures upon abolition of the hindlimb tonic extensor component of the seizure. Initial screen for anticonvulsant activity in the MES was performed with N=4 male CF-1 mice/dose/time point. The default doses and time-points were 3 and 30 mg/kg at 0.25 and 0.5 hr following administration. Quantification of the ED50 was conducted at the time of peak effect (TPE). To determine the TPE, groups of N=4 mice were treated with the investigational compound at 0.25, 0.5, 1.0, 2.0 and 4.0 hrs prior to MES testing, or based on time-points from prior studies. […] Quantitation of the ED50 was conducted the same as described for mice above.

[2] = i.p. 15 min before behavioral test, most efficacious dose(s) of 3 doses
[3] = SmartCube, i.p. 15 min before test, most efficacious dose(s)

SMILES | minimal effective dose ([1]; i.p.) [mg/kg] | AD: ADHD (probability that activity matches class) [1, 2] | AG: analgesic (probability that activity matches class) [1, 2] | AX: anxiolytic (probability that activity matches class) [1, 2] | CE: cognitive enhancer (probability that activity matches class) [1, 2] | DP: anti-depressant (probability that activity matches class) [1, 2] | MS: mood stabilizer (probability that activity matches class) [1, 2] | PS: anti-psychotic (probability that activity matches class) [1, 2] | SD: sedative hypnotic (probability that activity matches class) [1, 2] | UN: uncharacterized CNS activity (probability that activity matches class) [1, 2] | other results
CNC[C@@H]1OCCc2c(-c3cnco3)cccc21 (single isomer, unassigned) [Compound 96, hydrochloride salt] | ≤ 3 | ++ (5% ≤ ++ <25%) | + (LOQ ≤ + <5%) | +++ (25% ≤ +++ <50%) | + (LOQ ≤ + <5%) | ++++ (50% ≤ ++++) | + (LOQ ≤ + <5%) | + (LOQ ≤ + <5%) | ++++ (50% ≤ ++++) | + (LOQ ≤ + <5%) | Seizure protection at 30 mg/kg (animals protected/animals tested) (MES-induced seizures): 2/2 animals tested
CNC[C@H]1OCCc2c(-c3cnccn3)cccc21 (single isomer, unassigned) [Compound 81] | ≤ 3 | ++ (5% ≤ ++ <25%) | + (LOQ ≤ + <5%) | ++ (5% ≤ ++ <25%) | + (LOQ ≤ + <5%) | ++++ (50% ≤ ++++) | + (LOQ ≤ + <5%) | + (LOQ ≤ + <5%) | + (LOQ ≤ + <5%) | +++ (25% ≤ +++ <50%) | Seizure protection at 30 mg/kg (animals protected/animals tested) (MES-induced seizures): 3/3 animals tested
NC[C@@H]1OCCc2c1cccc2-n1cccn1 [Compound 188, (R)-(5-(1H-pyrazol-1-yl)isochroman-1-yl)methanamine hydrochloride salt] |  |  |  |  |  |  |  |  |  |  | minimal effective dose [1]: 10 to 30 mg/kg; AD: ADHD (probability that activity matches class) [1, 3]: ++ (5% ≤ ++ <25%); AG: analgesic (probability that activity matches class) [1, 3]: + (LOQ ≤ + <5%); AX: anxiolytic (probability that activity matches class) [1, 3]: ++ (5% ≤ ++ <25%); CE: cognitive enhancer (probability that activity matches class) [1, 3]: + (LOQ ≤ + <5%); DP: anti-depressant (probability that activity matches class) [1, 3]: + (LOQ ≤ + <5%); MS: mood stabilizer (probability that activity matches class) [1, 3]: + (LOQ ≤ + <5%); PS: anti-psychotic (probability that activity matches class) [1, 3]: + (LOQ ≤ + <5%); SD: sedative hypnotic (probability that activity matches class) [1, 3]: + (LOQ ≤ + <5%); UN: uncharacterized CNS activity (probability that activity matches class) [1, 3]: ++++ (50% ≤ ++++)
CNC[C@@H]1OCCc2c(-c3ccncn3)cccc21 (single isomer, unassigned) [Compound 72, hydrochloride salt] | > 30 | + (LOQ ≤ + <5%) | + (LOQ ≤ + <5%) | + (LOQ ≤ + <5%) | + (LOQ ≤ + <5%) | + (LOQ ≤ + <5%) | + (LOQ ≤ + <5%) | + (LOQ ≤ + <5%) | + (LOQ ≤ + <5%) | + (LOQ ≤ + <5%) | 
NC[C@H]1OCCc2c1cccc2-n1ccnc1 [Compound 185, (S)-(5-(1H-Imidazol-1-yl)isochroman-1-yl)methanamine hydrochloride salt] |  |  |  |  |  |  |  |  |  |  | minimal effective dose [1]: 10 to 30 mg/kg; AD: ADHD (probability that activity matches class) [1, 3]: + (LOQ ≤ + <5%); AG: analgesic (probability that activity matches class) [1, 3]: + (LOQ ≤ + <5%); AX: anxiolytic (probability that activity matches class) [1, 3]: ++ (5% ≤ ++ <25%); CE: cognitive enhancer (probability that activity matches class) [1, 3]: + (LOQ ≤ + <5%); DP: anti-depressant (probability that activity matches class) [1, 3]: ++ (5% ≤ ++ <25%); MS: mood stabilizer (probability that activity matches class) [1, 3]: + (LOQ ≤ + <5%); PS: anti-psychotic (probability that activity matches class) [1, 3]: + (LOQ ≤ + <5%); SD: sedative hypnotic (probability that activity matches class) [1, 3]: + (LOQ ≤ + <5%); UN: uncharacterized CNS activity (probability that activity matches class) [1, 3]: + (LOQ ≤ + <5%)
CNC[C@@H]1OCCc2c(-c3ccnc(C)c3)cccc21 (single isomer, unassigned) [Compound 120, hydrochloride salt] | 10 to 30 | + (LOQ ≤ + <5%) | + (LOQ ≤ + <5%) | ++ (5% ≤ ++ <25%) | + (LOQ ≤ + <5%) | ++ (5% ≤ ++ <25%) | + (LOQ ≤ + <5%) | + (LOQ ≤ + <5%) | + (LOQ ≤ + <5%) | + (LOQ ≤ + <5%) | 
NC[C@H]1OCCc2c(-c3ccon3)cccc21 (single isomer, unassigned) [Compound 89, hydrochloride salt] | ≤ 3 | ++ (5% ≤ ++ <25%) | ++ (5% ≤ ++ <25%) | +++ (25% ≤ +++ <50%) | + (LOQ ≤ + <5%) | ++++ (50% ≤ ++++) | + (LOQ ≤ + <5%) | ++ (5% ≤ ++ <25%) | + (LOQ ≤ + <5%) | ++ (5% ≤ ++ <25%) | 
CNC[C@H]1OCCc2c(-c3cccnc3)cccc21 (single isomer, unassigned) [Compound 8, bis-hydrochloride] | ≤ 3 | ++ (5% ≤ ++ <25%) | + (LOQ ≤ + <5%) | ++ (5% ≤ ++ <25%) | + (LOQ ≤ + <5%) | ++++ (50% ≤ ++++) | + (LOQ ≤ + <5%) | + (LOQ ≤ + <5%) | + (LOQ ≤ + <5%) | + (LOQ ≤ + <5%) | 
CNC[C@H]1OCCCc2c(-c3ccncn3)cccc21 (single isomer, unassigned) [Compound 165, hydrochloride salt] | 10 to 30 | + (LOQ ≤ + <5%) | + (LOQ ≤ + <5%) | + (LOQ ≤ + <5%) | + (LOQ ≤ + <5%) | ++ (5% ≤ ++ <25%) | + (LOQ ≤ + <5%) | + (LOQ ≤ + <5%) | + (LOQ ≤ + <5%) | + (LOQ ≤ + <5%) | 
NC[C@@H]1OCCc2cccc(-c3cccnc3)c21 (single isomer, unassigned) [Compound 9, hydrochloride] | 10 to 30 | + (LOQ ≤ + <5%) | ++ (5% ≤ ++ <25%) | ++ (5% ≤ ++ <25%) | + (LOQ ≤ + <5%) | ++ (5% ≤ ++ <25%) | + (LOQ ≤ + <5%) | ++ (5% ≤ ++ <25%) | + (LOQ ≤ + <5%) | + (LOQ ≤ + <5%) | 
CNC[C@H]1OCCc2c(-c3ncc[nH]3)cccc21 [Compound 111, (S)-1-(5-(1H-Imidazol-2-yl)isochroman-1-yl)-N-methylmethanamine hydrochloride salt] | 10 to 30 | + (LOQ ≤ + <5%) | + (LOQ ≤ + <5%) | ++ (5% ≤ ++ <25%) | + (LOQ ≤ + <5%) | + (LOQ ≤ + <5%) | + (LOQ ≤ + <5%) | + (LOQ ≤ + <5%) | + (LOQ ≤ + <5%) | + (LOQ ≤ + <5%) | 
